Measurements published in ChEMBL document CHEMBL1201862, “PubChem BioAssay data set” (2004).
The source made the active and inactive calls.

Tests used:
[1] = cells; format: functional
[2] = Vero E6 cell cytotoxicity, dose response, cytotoxicity control for non-replicating M. tuberculosis project, secondary assay (AID 492998); format: functional, VeroE6; settings: Vero C1008
[3] = molecular target: FAD-linked sulfhydryl oxidase ALR (Homo sapiens, UniProt P55789); assay: inhibitors of human ALR sulfhydryl oxidase, dose response, biochemical, H2O2 detection, luminescence, cherry-pick (AID 493248)
[4] = THP-1 cell cytotoxicity, dose response, cytotoxicity control for non-replicating M. tuberculosis project (AID 489025); format: functional
[5] = molecular target: Large T antigen (Simian virus 40, UniProt P03070); format: functional, Betapolyomavirus macacae;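 also: Confirmatory-stage PubChem screen for compounds that inhibit SV40 T antigen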
[6] = cytotoxicity toward NIH3T3 fibroblasts, dose response, counter-screen, cell-based, ATP luminescence, mouse fibroblasts (AID 2010); format: functional;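 also: cells exposed to compound for about 90 hours before reading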
[7] = inhibitors of intracellular T. cruzi replication, confirmation, NIH3T3 host cells, beta-gal luminescence (AID 2044); format: functional, cell-based;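 also: intracellular parasites grown in NIH/3T3 mouse fibroblasts as host cells; luminescent beta-galactosidase reporter signal from transgenic T. cruzi replicating inside host cells; inhibitors lower the luminescence signal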
[8] = HepG2 cell cytotoxicity, dose response, cytotoxicity control for non-replicating M. tuberculosis project (AID 489018); format: functional; settings: Mycobacterium tuberculosis
[9] = system: INS1; assay: beta cell apoptosis inhibitors, cytokine rescue, dose response, luminescence, retest (AID 449756); format: functional, cell-based; settings: Rattus norvegicus;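 also: cell death triggered by IL-1 beta plus TNF-alpha plus IFN-gamma mixture; protective hits raise ATP signal compared with cytokine alone wells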
[10] = system: Vero; assay: cells; format: functional, cell-based; settings: Chlorocebus sabaeus
[11] = system: Vero; assay: cells; format: functional; settings: Chlorocebus sabaeus
[12] = system: SN12K1; assay: cells; format: functional; settings: Homo sapiens
[13] = system: P388/ADR; assay: cells; format: functional; settings: Mus musculus
[14] = system: P388; assay: cells; format: functional; settings: Mus musculus
[15] = molecular target: Nonstructural protein 1 (Influenza A virus, UniProt Q194T2); format: functional, Influenza A virus (A/California/07/2009(H1N1))
[16] = molecular target: Cytochrome P450 3A4 (Homo sapiens, UniProt P08684);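 also: CYP3A4 tested as one member of a cytochrome P450 panel screen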
[17] = molecular target: T1, Replicative DNA helicase DnaB (Mycobacterium tuberculosis, UniProt P9WMR3); assay: DnaB intein splicing inhibitors, dose response, biochemical, cell-free fluorescence (AID 449749); format: functional
T1 sequence (P9WMR3 whole entry): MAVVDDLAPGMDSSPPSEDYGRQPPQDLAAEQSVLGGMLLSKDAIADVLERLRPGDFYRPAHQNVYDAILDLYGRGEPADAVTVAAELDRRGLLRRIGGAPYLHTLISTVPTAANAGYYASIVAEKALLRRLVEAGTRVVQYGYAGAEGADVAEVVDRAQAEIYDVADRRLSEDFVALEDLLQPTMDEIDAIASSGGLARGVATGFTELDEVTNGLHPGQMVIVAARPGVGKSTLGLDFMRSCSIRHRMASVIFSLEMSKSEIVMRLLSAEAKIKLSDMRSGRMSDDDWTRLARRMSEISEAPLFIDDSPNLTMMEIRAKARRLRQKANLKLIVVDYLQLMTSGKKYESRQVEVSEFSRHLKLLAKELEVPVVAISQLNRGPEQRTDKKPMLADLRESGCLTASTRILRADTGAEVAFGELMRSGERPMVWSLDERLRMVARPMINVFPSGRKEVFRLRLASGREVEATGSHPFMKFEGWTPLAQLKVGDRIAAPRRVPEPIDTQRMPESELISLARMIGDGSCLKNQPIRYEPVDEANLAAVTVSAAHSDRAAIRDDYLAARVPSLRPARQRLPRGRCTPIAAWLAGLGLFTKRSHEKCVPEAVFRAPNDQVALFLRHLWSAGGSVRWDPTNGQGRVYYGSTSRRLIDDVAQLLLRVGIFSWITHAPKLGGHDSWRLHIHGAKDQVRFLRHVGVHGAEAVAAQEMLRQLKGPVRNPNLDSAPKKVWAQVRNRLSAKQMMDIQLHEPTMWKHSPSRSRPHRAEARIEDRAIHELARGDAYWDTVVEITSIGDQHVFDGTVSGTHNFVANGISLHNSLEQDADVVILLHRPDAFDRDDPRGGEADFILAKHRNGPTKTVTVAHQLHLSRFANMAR

[18] = molecular target: T2, Protein RecA (Mycobacterium tuberculosis, UniProt P9WHJ3); assay: Fluorescence Cell-Free Homogeneous Dose Retest to Identify Inhibitors of RecA-Intein Splicing Activity. [Related pubchem assays (depositor defined):AID2097, AID2223, AID489010, AID492950]; format: functional
T2 sequence (P9WHJ3 whole entry): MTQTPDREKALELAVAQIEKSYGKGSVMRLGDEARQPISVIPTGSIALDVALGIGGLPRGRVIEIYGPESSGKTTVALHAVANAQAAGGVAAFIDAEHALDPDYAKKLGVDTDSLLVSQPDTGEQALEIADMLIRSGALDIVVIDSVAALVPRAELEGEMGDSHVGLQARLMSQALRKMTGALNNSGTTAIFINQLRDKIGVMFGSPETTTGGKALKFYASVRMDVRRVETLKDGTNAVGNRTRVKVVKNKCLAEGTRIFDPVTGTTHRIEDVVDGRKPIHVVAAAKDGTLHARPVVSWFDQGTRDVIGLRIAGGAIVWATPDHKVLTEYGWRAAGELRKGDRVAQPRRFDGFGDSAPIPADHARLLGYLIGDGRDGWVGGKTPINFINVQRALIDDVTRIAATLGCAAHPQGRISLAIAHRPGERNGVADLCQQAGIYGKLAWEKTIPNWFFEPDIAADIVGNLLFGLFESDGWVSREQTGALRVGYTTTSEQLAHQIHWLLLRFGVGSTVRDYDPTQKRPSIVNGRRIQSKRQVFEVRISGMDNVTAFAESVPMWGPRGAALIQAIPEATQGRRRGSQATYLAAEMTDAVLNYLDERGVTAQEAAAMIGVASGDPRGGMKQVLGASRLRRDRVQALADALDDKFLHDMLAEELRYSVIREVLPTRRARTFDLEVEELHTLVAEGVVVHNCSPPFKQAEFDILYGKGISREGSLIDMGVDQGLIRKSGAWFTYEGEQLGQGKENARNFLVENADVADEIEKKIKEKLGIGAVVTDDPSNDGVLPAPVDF

Sequence of Cytochrome P450 3A4 (P08684 whole entry): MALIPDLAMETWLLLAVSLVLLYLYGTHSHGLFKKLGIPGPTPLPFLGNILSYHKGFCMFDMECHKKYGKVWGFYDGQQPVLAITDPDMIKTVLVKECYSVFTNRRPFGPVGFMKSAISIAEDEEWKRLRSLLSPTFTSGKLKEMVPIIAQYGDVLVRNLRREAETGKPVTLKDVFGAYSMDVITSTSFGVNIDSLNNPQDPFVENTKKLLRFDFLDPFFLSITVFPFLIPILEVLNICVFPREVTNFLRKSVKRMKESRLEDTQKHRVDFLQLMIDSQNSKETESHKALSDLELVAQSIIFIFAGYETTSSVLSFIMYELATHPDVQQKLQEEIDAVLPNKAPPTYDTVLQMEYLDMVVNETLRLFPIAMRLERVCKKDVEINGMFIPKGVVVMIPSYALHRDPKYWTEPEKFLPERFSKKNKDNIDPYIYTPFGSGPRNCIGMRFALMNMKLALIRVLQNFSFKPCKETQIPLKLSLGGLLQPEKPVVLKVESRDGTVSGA
Sequence of FAD-linked sulfhydryl oxidase ALR (P55789 whole entry): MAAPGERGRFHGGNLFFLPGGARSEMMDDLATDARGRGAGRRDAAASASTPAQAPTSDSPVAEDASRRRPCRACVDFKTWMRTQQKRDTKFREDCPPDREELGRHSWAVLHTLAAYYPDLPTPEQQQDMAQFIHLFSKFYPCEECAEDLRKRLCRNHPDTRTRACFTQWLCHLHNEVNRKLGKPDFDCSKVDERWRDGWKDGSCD
Sequence of Nonstructural protein 1 (Q194T2 whole entry): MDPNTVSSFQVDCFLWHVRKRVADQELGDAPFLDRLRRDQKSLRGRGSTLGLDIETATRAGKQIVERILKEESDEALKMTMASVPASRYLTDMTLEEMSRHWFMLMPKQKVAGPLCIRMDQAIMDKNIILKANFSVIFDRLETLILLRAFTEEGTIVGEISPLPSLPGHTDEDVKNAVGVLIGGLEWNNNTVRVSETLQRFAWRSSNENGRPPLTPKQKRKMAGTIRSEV
Sequence of Large T antigen (P03070 whole entry): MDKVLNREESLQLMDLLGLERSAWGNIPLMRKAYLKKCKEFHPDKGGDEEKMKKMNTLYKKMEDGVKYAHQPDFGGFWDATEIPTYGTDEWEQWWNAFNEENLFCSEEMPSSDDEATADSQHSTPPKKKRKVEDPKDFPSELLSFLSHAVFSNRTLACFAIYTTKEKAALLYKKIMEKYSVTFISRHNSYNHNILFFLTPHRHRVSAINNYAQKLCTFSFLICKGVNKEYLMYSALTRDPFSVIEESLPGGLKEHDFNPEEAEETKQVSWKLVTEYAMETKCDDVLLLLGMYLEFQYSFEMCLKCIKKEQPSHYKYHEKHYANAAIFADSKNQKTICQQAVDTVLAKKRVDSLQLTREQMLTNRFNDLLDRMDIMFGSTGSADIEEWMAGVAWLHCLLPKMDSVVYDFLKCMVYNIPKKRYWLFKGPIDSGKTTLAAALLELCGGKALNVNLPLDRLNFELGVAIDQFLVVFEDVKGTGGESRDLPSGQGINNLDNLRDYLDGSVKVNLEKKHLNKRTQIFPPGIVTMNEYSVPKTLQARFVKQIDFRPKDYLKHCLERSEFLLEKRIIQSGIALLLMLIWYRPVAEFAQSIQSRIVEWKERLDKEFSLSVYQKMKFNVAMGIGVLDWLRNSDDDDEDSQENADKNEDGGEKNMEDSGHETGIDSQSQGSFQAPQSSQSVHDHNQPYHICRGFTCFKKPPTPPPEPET

SMILES | IC50 [1] | CC50 [2] | CC50 [4] | CC50 [8] | GI50 [12] | GI50 [13] | GI50 [14] | other results
Cc1ccc2nc(-c3ccccn3)c(NC3CCCC3)n2c1 | 4.95 µM (active) | 16.5 µM (active) | 14.3 µM (active) | > 20 µM (active) | – | – | – | AC50 [3]: 7.26 µM (active); IC50 [5]: 11.6 µM (active); EC50 [6]: > 60 µM (not active); EC50 [7]: 1.74 µM (active); AC50 [9]: 8.58 µM (active)
Cc1ccc(OCCCCCCN2CCNCC2)c(Br)c1 | – | – | – | – | – | – | – | IC50 [10]: 19.7 µM (active); CC50 [11]: 21.8 µM (active)
Cc1csc(/N=C(/NCCN2CCOCC2)Nc2nc(C)cs2)n1 | – | – | – | – | > 100 µM (inactive) | > 80.4 µM (inactive) | > 31.6 µM (inactive) | –
N=C(N)NCCCCCCC(=O)NC(O)C(=O)NCCCCNCCCN (stereo unspecified) | – | – | – | – | 731 µM (inactive) | 55.2 µM (inactive) | 30.1 µM (inactive) | –
COC(=O)C(C/C=C(\C)c1ccc(Cl)cc1)C(C)=O (stereo unspecified) | – | – | – | – | 21.8 µM (inactive) | 23.6 µM (inactive) | 20 µM (inactive) | –
C/C(=N\Nc1nc2ccccc2[nH]1)c1ccc(N2CCOCC2)cc1 | 20.3 µM (active) | – | – | > 20 µM (active) | – | – | – | –
C/C(=N\NC(=O)c1c[nH]c2ccccc12)c1ccccn1 | 4.29 µM (active) | 2.01 µM (active) | 6.55 µM (active) | 12.1 µM (active) | – | – | – | IC50 [15]: 3.17 µM (active); EC50 [6]: 3.97 µM (active); EC50 [7]: 1.73 µM (active)
c1ccc(CCCCN2CCC(c3ccccc3)CC2)cc1 | – | – | – | – | – | – | – | AC50 [16]: inconclusive
O=C1c2ccccc2-n2c1nc1ccccc1c2=O [TRYPTANTHRIN] | 0.33 µM (active) | > 20 µM (active) | 17.5 µM (active) | > 20 µM (active) | – | – | – | AC50 [17]: 1.08 µM (active); EC50 [18]: 0.643 µM (active)
